In US9624182B2, “Compounds as lysophosphatidic acid receptor antagonists” (Amira Pharmaceuticals, Inc., priority 2009, dated 2017):

biological target: T1, human LPA1 (Homo sapiens, UniProt Q92633); experiment: LPA1 calcium flux assay; assay type: cell-based; settings: CHO cells expressing human LPA1, stimulated with 10 nM LPA; read-out: HLPA1 Ca Flux IC50
T1 construct: the full-length cDNA for human LPA1 was obtained by PCR of the reverse transcription reaction; expressed in transfected cells
Summary of the method: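 CHO cells stably expressing cloned human LPA1, serum-starved overnight, loaded with Calcium 4 dye 1 h at 37 °C in HBSS/20 mM Hepes with 0.3% fatty-acid-free HSA. Compounds preincubated 30 min at room temperature, then cells stimulated with 10 nM LPA; intracellular Ca2+ read by fluorescence. IC50 from titration curves.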

T1 sequence (Q92633 whole entry): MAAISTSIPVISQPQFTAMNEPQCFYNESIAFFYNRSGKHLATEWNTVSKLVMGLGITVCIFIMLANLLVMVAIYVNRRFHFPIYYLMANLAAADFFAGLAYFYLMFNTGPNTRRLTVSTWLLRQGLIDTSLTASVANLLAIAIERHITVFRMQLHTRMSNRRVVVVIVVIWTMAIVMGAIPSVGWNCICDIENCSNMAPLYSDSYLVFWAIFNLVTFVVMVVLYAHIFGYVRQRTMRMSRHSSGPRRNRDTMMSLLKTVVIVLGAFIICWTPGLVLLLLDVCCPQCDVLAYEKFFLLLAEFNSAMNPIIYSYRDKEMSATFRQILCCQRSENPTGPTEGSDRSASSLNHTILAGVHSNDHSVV

| Structure (SMILES) | IC50 [nM] |
| --- | --- |
| Cc1noc(-c2ccc(-c3ccc(CC(=O)O)cc3)cc2)c1CC(F)(F)CCc1ccccc1 [Compound 1-170, {4′-[4-(2,2-Difluoro-4-phenyl-butyl)-3-methyl-isoxazol-5-yl]-biphenyl-4-yl}-acetic acid] | < 300 |
| CCC(C(=O)O)c1ccc(-c2ccc(-c3onc(C)c3C(O)CCCc3ccccc3C(F)(F)F)cc2)cc1 (centres unmarked) [Compound 1-171, 2-(4′-{4-[1-Hydroxy-4-(2-trifluoromethyl-phenyl)-butyl]-3-methyl-isoxazol-5-yl}-biphenyl-4-yl)-butyric acid] | 300 to 1000 |
| Cc1noc(-c2ccc(-c3ccc(C4(CC(=O)O)CC4)cc3)cc2)c1CC(F)(F)CCc1ccccc1 [Compound 1-175, (1-{4′-[4-(2,2-Difluoro-4-phenyl-butyl)-3-methyl-isoxazol-5-yl]-biphenyl-4-yl}-cyclopropyl)-acetic acid] | < 300 |
| Cc1noc(-c2ccc(-c3ccc(CC(=O)O)cc3)cc2)c1NC(C)CCc1cccc(Cl)c1 (centres unmarked) [Compound 1-182, (4′-{4-[3-(3-Chloro-phenyl)-1-methyl-propylamino]-3-methyl-isoxazol-5-yl}-biphenyl-4-yl)-acetic acid] | < 300 |
| Cc1noc(-c2ccc(-c3ccc(C4(CC(=O)O)CC4)cc3)cc2)c1NC(C)CCc1cccc(C(F)(F)F)c1 (centres unmarked) [Compound 1-183, [1-(4′-{3-Methyl-4-[1-methyl-3-(3-trifluoromethyl-phenyl)-propylamino]-isoxazol-5-yl}-biphenyl-4-yl)-cyclopropyl]-acetic acid] | < 300 |
| Cc1noc(-c2ccc(-c3ccc(C4(CC(=O)O)CC4)cc3)cc2)c1NC(C)CCc1cccc(F)c1 (centres unmarked) [Compound 1-185, [1-(4′-{4-[3-(3-Fluoro-phenyl)-1-methyl-propylamino]-3-methyl-isoxazol-5-yl}-biphenyl-4-yl)-cyclopropyl]-acetic acid] | < 300 |
| Cc1noc(-c2ccc(-c3ccc(C4(C(=O)O)CC4)cc3)cc2)c1C(CO)NCc1ccccc1 (centres unmarked) [Compound 1-189, 1-{4′-[4-(1-Benzylamino-2-hydroxy-ethyl)-3-methyl-isoxazol-5-yl]-biphenyl-4-yl}-cyclopropanecarboxylic acid] | < 300 |
| Cc1noc(-c2ccc(-c3ccc(C4(C(=O)O)CC4)cc3)cc2)c1C(O)CN (centres unmarked) [Compound 1-190, 1-{4′-[4-(2-Amino-1-hydroxy-ethyl)-3-methyl-isoxazol-5-yl]-biphenyl-4-yl}-cyclopropanecarboxylic acid] | < 300 |
| Cc1noc(-c2ccc(-c3ccc(CCC(=O)O)cc3)cc2)c1NC(C)CCc1cccc(C(F)(F)F)c1 (centres unmarked) [Compound 1-192, 3-(4′-{3-Methyl-4-[1-methyl-3-(3-trifluoromethyl-phenyl)-propylamino]-isoxazol-5-yl}-biphenyl-4-yl)-propionic acid] | < 300 |
| Cc1noc(-c2ccc(-c3ccc(CCC(=O)O)cc3)cc2)c1NC(C)CCc1cccc(Cl)c1 (centres unmarked) [Compound 1-193, 3-(4′-{4-[3-(3-Chloro-phenyl)-1-methyl-propylamino]-3-methyl-isoxazol-5-yl}-biphenyl-4-yl)-propionic acid] | < 300 |
| Cc1cnn(Cc2c(C)noc2-c2ccc(-c3ccc(C4(C(=O)O)CC4)cc3)cc2)c1 [Compound 1-194, 1-{4′-[3-Methyl-4-(4-methyl-pyrazol-1-ylmethyl)-isoxazol-5-yl]-biphenyl-4-yl}-cyclopropanecarboxylic acid] | 1000 to 50000 |
| Cc1noc(-c2ccc(-c3ccc(CCC(=O)O)cc3)cc2)c1C(O)CCCc1ccccc1 (centres unmarked) [Compound 1-197, 3-{4′-[4-(1-Hydroxy-4-phenyl-butyl)-3-methyl-isoxazol-5-yl]-biphenyl-4-yl}-propionic acid] | < 300 |
| Cc1noc(-c2ccc(-c3ccccc3CCC(=O)O)cc2)c1C(O)CCCc1ccccc1 (centres unmarked) [Compound 1-201, 3-{4′-[4-(1-Hydroxy-4-phenyl-butyl)-3-methyl-isoxazol-5-yl]-biphenyl-2-yl}-propionic acid] | 1000 to 50000 |
| Cc1noc(-c2ccc(-c3ccc(C4(C(=O)O)CC4)cc3)cc2)c1C(=O)C[S+]([O-])Cc1ccccc1 (centres unmarked) [Compound 1-202, 1-{4′-[3-Methyl-4-(2-phenylmethanesulfinyl-acetyl)-isoxazol-5-yl]-biphenyl-4-yl}-cyclopropanecarboxylic acid] | 1000 to 50000 |
| Cc1noc(-c2ccc(-c3ccccc3C3(C(=O)O)CC3)cc2)c1C(O)CCCc1ccccc1 (centres unmarked) [Compound 1-203, 1-{4′-[4-(1-Hydroxy-4-phenyl-butyl)-3-methyl-isoxazol-5-yl]-biphenyl-2-yl}-cyclopropanecarboxylic acid] | 1000 to 50000 |
| CC(C)=CCCC(C)Nc1c(C)noc1-c1ccc(-c2ccc(C3(CC(=O)O)CC3)cc2)cc1 (centres unmarked) [Compound 1-204, (1-{4′-[4-(1,5-Dimethyl-hex-4-enylamino)-3-methyl-isoxazol-5-yl]-biphenyl-4-yl}-cyclopropyl)-acetic acid] | < 300 |
| Cc1noc(-c2ccc(-c3ccc(C4(CC(=O)O)CC4)cc3)cc2)c1NC(C)c1ccc2ccccc2c1 (centres unmarked) [Compound 1-206, (1-{4′-[3-Methyl-4-(1-naphthalen-2-yl-ethylamino)-isoxazol-5-yl]-biphenyl-4-yl}-cyclopropyl)-acetic acid] | < 300 |
| Cc1noc(-c2ccc(-c3ccc(C4(CC(=O)O)CC4)cc3)cc2)c1C(O)CCCCc1ccc(Cl)c(Cl)c1 (centres unmarked) [Compound 1-208, [1-(4′-{4-[5-(3,4-Dichloro-phenyl)-1-hydroxy-pentyl]-3-methyl-isoxazol-5-yl}-biphenyl-4-yl)-cyclopropyl]-acetic acid] | < 300 |
| COc1ccc(CCC(C)Nc2c(C)noc2-c2ccc(-c3ccc(C4(CC(=O)O)CC4)cc3)cc2)cc1 (centres unmarked) [Compound 1-211, [1-(4′-{4-[3-(4-Methoxy-phenyl)-1-methyl-propylamino]-3-methyl-isoxazol-5-yl}-biphenyl-4-yl)-cyclopropyl]-acetic acid] | 300 to 1000 |

Results, then the molecule that gave them:

| IC50 [nM] | Structure (SMILES) |
| --- | --- |
| 1000 to 50000 | CCCC(O)c1c(C)noc1-c1ccc(-c2ccc(C3(C(=O)O)CC3)cc2)cc1 (centres unmarked) [Compound 1-166, 1-{4′-[4-(1-Hydroxy-butyl)-3-methyl-isoxazol-5-yl]-biphenyl-4-yl}-cyclopropanecarboxylic acid] |
| 300 to 1000 | Cc1noc(-c2ccc(-c3ccc(CC(=O)O)cc3)cc2)c1NC(C)CCc1cccc(C(F)(F)F)c1 (centres unmarked) [Compound 1-181, (4′-{3-Methyl-4-[1-methyl-3-(3-trifluoromethyl-phenyl)-propylamino]-isoxazol-5-yl}-biphenyl-4-yl)-acetic acid] |
| < 300 | Cc1noc(-c2ccc(-c3ccc(C4(CC(=O)O)CC4)cc3)cc2)c1NC(C)CCc1cccc(Cl)c1 (centres unmarked) [Compound 1-184, [1-(4′-{4-[3-(3-Chloro-phenyl)-1-methyl-propylamino]-3-methyl-isoxazol-5-yl}-biphenyl-4-yl)-cyclopropyl]-acetic acid] |
| < 300 | Cc1noc(-c2ccc(-c3ccc(C4(C(=O)O)CC4)cc3)cc2)c1C(O)CN[C@H]1CCc2ccccc21 (stereo partly drawn) [Compound 1-187, 1-(4′-{4-[1-Hydroxy-2-((S)-indan-1-ylamino)-ethyl]-3-methyl-isoxazol-5-yl}-biphenyl-4-yl)-cyclopropanecarboxylic acid] |
| < 300 | Cc1noc(-c2ccc(-c3ccc(C(Cc4ccccc4)C(=O)O)cc3)cc2)c1C(O)CCCc1ccccc1 (centres unmarked) [Compound 1-188, 2-{4′-[4-(1-Hydroxy-4-phenyl-butyl)-3-methyl-isoxazol-5-yl]-biphenyl-4-yl}-3-phenyl-propionic acid] |
| < 300 | Cc1noc(-c2ccc(-c3ccc(CCC(=O)O)cc3)cc2)c1CSCCc1ccccc1 [Compound 1-191, 3-[4′-(3-Methyl-4-phenethylsulfanylmethyl-isoxazol-5-yl)-biphenyl-4-yl]-propionic acid] |
| 1000 to 50000 | Cc1ccc2nc(NCc3c(C)noc3-c3ccc(-c4ccc(C5(C(=O)O)CC5)cc4)cc3)sc2c1 [Compound 1-195, 1-(4′-{3-Methyl-4-[(6-methyl-benzothiazol-2-ylamino)-methyl]-isoxazol-5-yl}-biphenyl-4-yl)-cyclopropanecarboxylic acid] |
| 1000 to 50000 | Cc1noc(-c2ccc(-c3ccc(C4(C(=O)O)CC4)cc3)cc2)c1Cn1cc(Br)cn1 [Compound 1-196, 1-{4′-[4-(4-Bromo-pyrazol-1-ylmethyl)-3-methyl-isoxazol-5-yl]-biphenyl-4-yl}-cyclopropanecarboxylic acid] |
| < 300 | Cc1noc(-c2ccc(-c3cccc(CCC(=O)O)c3)cc2)c1C(O)CCCc1ccccc1 (centres unmarked) [Compound 1-200, 3-{4′-[4-(1-Hydroxy-4-phenyl-butyl)-3-methyl-isoxazol-5-yl]-biphenyl-3-yl}-propionic acid] |
| < 300 | CC(C)=CCCC(C)Nc1c(C)noc1-c1ccc(-c2ccc(C3(C(=O)O)CC3)cc2)cc1 (centres unmarked) [Compound 1-205, 1-{4′-[4-(1,5-Dimethyl-hex-4-enylamino)-3-methyl-isoxazol-5-yl]-biphenyl-4-yl}-cyclopropanecarboxylic acid] |
| < 300 | Cc1noc(-c2ccc(-c3ccc(C4(CC(=O)O)CC4)cc3)cc2)c1C(O)CCCCc1ccccc1 (centres unmarked) [Compound 1-207, (1-{4′-[4-(1-Hydroxy-5-phenyl-pentyl)-3-methyl-isoxazol-5-yl]-biphenyl-4-yl}-cyclopropyl)-acetic acid] |
| 1000 to 50000 | Cc1noc(-c2ccc(-c3ccc(C4(C(=O)O)CC4)cc3)cc2)c1Nc1ncnc2scc(C)c12 [Compound 1-212, 1-{4′-[3-Methyl-4-(5-methyl-thieno[2,3-d]pyrimidin-4-ylamino)-isoxazol-5-yl]-biphenyl-4-yl}-cyclopropanecarboxylic acid] |
| 300 to 1000 | Cc1noc(-c2ccc(-c3ccc(C4(CC(=O)O)CC4)cc3)cc2)c1NC(CCc1ccccc1)c1ccccc1 (centres unmarked) [Compound 1-213, (1-{4′-[4-(1,3-Diphenyl-propylamino)-3-methyl-isoxazol-5-yl]-biphenyl-4-yl}-cyclopropyl)-acetic acid] |
